IC50 data for 22 compounds are collected here from ChEMBL document CHEMBL4041516, “SAR study of 5-alkynyl substituted quinazolin-4(3H)-ones as phosphoinositide 3-kinase delta (PI3Kδ) inhibitors” (Eur J Med Chem, 2017).

Usually IC50 stands for the concentration at which inhibition is half-maximal. Lower therefore signals greater potency.

The subject of one assay is SU-DHL-6. The assay is described as follows: Antiproliferative activity against human SUDHL6 cells measured after 72 hrs by alamar blue assay. It is filed as functional, cell-based. As to conditions: SU-DHL-6, 72 h.
The target of assay [1] is T1, Phosphatidylinositol 4,5-bisphosphate 3-kinase catalytic subunit delta isoform (Homo sapiens, UniProt O00329).
T1 sequence (O00329 whole entry): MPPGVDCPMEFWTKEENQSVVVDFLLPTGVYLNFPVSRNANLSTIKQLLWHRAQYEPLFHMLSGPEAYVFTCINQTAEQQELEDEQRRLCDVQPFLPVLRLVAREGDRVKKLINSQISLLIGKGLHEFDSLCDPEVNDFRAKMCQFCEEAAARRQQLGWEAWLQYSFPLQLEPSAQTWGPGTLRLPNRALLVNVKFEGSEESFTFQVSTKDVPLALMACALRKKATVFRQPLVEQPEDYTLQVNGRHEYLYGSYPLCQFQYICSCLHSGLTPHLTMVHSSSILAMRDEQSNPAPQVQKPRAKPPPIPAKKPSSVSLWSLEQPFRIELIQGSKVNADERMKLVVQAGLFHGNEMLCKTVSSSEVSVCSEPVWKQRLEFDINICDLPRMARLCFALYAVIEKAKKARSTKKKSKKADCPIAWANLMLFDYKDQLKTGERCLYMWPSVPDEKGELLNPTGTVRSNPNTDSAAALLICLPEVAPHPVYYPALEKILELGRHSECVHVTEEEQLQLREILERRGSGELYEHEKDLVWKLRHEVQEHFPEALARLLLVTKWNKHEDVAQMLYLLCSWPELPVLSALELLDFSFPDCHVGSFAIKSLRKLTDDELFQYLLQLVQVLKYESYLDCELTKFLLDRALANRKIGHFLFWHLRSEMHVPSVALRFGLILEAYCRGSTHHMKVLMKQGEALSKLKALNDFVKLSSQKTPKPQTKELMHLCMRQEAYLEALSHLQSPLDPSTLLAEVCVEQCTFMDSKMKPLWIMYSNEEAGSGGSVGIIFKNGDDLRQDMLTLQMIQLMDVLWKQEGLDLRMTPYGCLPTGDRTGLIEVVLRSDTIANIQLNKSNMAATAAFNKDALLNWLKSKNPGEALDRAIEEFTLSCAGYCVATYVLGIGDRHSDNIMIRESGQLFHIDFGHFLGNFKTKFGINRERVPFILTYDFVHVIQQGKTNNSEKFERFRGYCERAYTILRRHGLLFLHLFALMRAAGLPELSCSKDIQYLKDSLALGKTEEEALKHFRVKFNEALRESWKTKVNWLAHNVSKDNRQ
The experiment in a line: Inhibition of PI3Kdelta (unknown origin) using PIP2 as substrate measured after 30 mins by HTRF assay.

On to `N#Cc1c(N)ncnc1N1CCC[C@H]1c1nc2cccc(C#CCCCC(=O)N3CCCC3)c2c(=O)n1-c1ccccc1`, for which the half-maximal inhibitory concentration (IC50) in the assay on SU-DHL-6 stood at 99 nM; in assay [1] it was 11.5 nM.

Consider `N#Cc1c(N)ncnc1N1CCC[C@H]1c1nc2cccc(C#Cc3ccccn3)c2c(=O)n1-c1ccccc1`, for which the half-maximal inhibitory concentration (IC50) in the assay on SU-DHL-6 is 1900 nM; in assay [1] it was > 300 nM.

Turning to `N#Cc1c(N)ncnc1N1CCC[C@H]1c1nc2cccc(C#Cc3cccnc3)c2c(=O)n1-c1ccccc1`, the half-inhibitory concentration (IC50) was 1730 nM with SU-DHL-6 and > 300 nM in assay [1].

On to `N#Cc1c(N)ncnc1N1CCC[C@H]1c1nc2cccc(C#Cc3cccc(F)c3)c2c(=O)n1-c1ccccc1`, for which the concentration for half-maximal inhibition (IC50) is 3860 nM in the assay on SU-DHL-6 and > 300 nM in assay [1].

For the compound `N#Cc1c(N)ncnc1N1CCC[C@H]1c1nc2cccc(C#CCN3C[C@@H]4C[C@H]3CN4)c2c(=O)n1-c1ccccc1`, the concentration for half-maximal inhibition (IC50) amounted to 1260 nM in the assay with SU-DHL-6 and 135 nM in assay [1].

Consider `CC[C@H](Nc1nc(N)nc(N)c1C#N)c1nc2cccc(C#CCCCO)c2c(=O)n1-c1ccccc1`, for which the results for the IC50 (in the assay on SU-DHL-6; in assay [1]) were 26.8 nM and 12.2 nM, respectively.

Turning to `CC(C)(C)N1CCN(C(=O)C#Cc2cccc3nc([C@@H]4CCCN4c4ncnc(N)c4C#N)n(-c4ccccc4)c(=O)c23)CC1`, the figures for the IC50 (with SU-DHL-6; in assay [1]) were 216 nM and 97.7 nM, respectively.

`CC(C)(F)CN1CCN(CC#Cc2cccc3nc([C@@H]4CCCN4c4ncnc(N)c4C#N)n(-c4ccccc4)c(=O)c23)CC1`: the half-inhibitory concentration (IC50) with SU-DHL-6 was found to be 2820 nM; in assay [1], 170 nM.

For the compound `CC(COC(F)F)N1CCN(CC#Cc2cccc3nc([C@@H]4CCCN4c4ncnc(N)c4C#N)n(-c4ccccc4)c(=O)c23)CC1` (some centres undefined), the 50% inhibitory concentration (IC50) was 2000 nM with SU-DHL-6 and 188 nM in assay [1].

As for `CC[C@H](Nc1ncnc(N)c1C#N)c1nc2cccc(C#CCCCC(=O)N3CCCC3)c2c(=O)n1-c1ccccc1`, the IC50 in the assay on SU-DHL-6 is 1900 nM; in assay [1], 112 nM.

For the compound `Cc1nc(N)nc(N2CC[C@H]2c2nc3cccc(C#CCCCC(=O)N4CCCC4)c3c(=O)n2-c2ccccc2)c1C#N`, the values for the IC50 (with SU-DHL-6; in assay [1]) were 862 nM and 19.6 nM, respectively.

Consider `N#Cc1c(N)ncnc1N1CCC[C@H]1c1nc2cccc(C#CCN3CCC(C4CC(F)C4)CC3)c2c(=O)n1-c1ccccc1` (some centres undefined), for which the IC50 in the assay on SU-DHL-6 was determined as 526 nM; in assay [1], 78.1 nM.

With `Cc1nc(N)nc(N2CCC[C@H]2c2nc3cccc(C#CCCCC(=O)N4CCOCC4)c3c(=O)n2-c2ccccc2)c1C#N`, the IC50 in the assay on SU-DHL-6 was 178 nM; in assay [1], 11.8 nM.

`C=CC(O)C(C)(C)N1CCN(CC#Cc2cccc3nc([C@@H]4CCCN4c4ncnc(N)c4C#N)n(-c4ccccc4)c(=O)c23)CC1` (some centres undefined): the values for the IC50 (in the assay on SU-DHL-6; in assay [1]) were 372 nM and 60.2 nM, respectively.

For `N#Cc1c(N)ncnc1N1CCC[C@H]1c1nc2cccc(C#CC(=O)N3CCOCC3)c2c(=O)n1-c1ccccc1`, the results for the concentration for half-maximal inhibition (IC50) (in the assay with SU-DHL-6; in assay [1]) were 1120 nM and 70 nM, respectively.

`N#Cc1c(N)ncnc1N1CC[C@H]1c1nc2cccc(C#CCCCC(=O)N3CCOCC3)c2c(=O)n1-c1ccccc1`: the concentration for half-maximal inhibition (IC50) in the assay with SU-DHL-6 came to 7320 nM; in assay [1] it was 620 nM.

As for `N#Cc1c(N)ncnc1N1CCC[C@H]1c1nc2cccc(C#CCN3CCOCC3)c2c(=O)n1-c1ccccc1`, the IC50 in the assay with SU-DHL-6 was 1160 nM; in assay [1] it was 107 nM.

Consider `CCOC(=O)c1cnc(C#Cc2cccc3nc([C@@H]4CCCN4c4ncnc(N)c4C#N)n(-c4ccccc4)c(=O)c23)s1`, for which the IC50 in the assay on SU-DHL-6 was > 10000 nM; in assay [1] it was > 300 nM.

In the case of `CC(F)CN1CCN(CC#Cc2cccc3nc([C@@H]4CCCN4c4ncnc(N)c4C#N)n(-c4ccccc4)c(=O)c23)CC1` (some centres undefined), the values for the IC50 (in the assay on SU-DHL-6; in assay [1]) were 1410 nM and 80.2 nM, respectively.

As to `N#Cc1c(N)ncnc1N1CC[C@H]1c1nc2cccc(C#CCCCC(=O)N3CCCC3)c2c(=O)n1-c1ccccc1`, the half-maximal inhibitory concentration (IC50) was 7840 nM in the assay on SU-DHL-6 and 440 nM in assay [1].

As for `Cc1nc(N)nc(N2CC[C@H]2c2nc3cccc(C#CCCCC(=O)N4CCOCC4)c3c(=O)n2-c2ccccc2)c1C#N`, the IC50 with SU-DHL-6 is 640 nM; in assay [1] it was 16.8 nM.

With `Nc1nc(N)nc(N2CCC[C@H]2c2nc3cccc(C#CCCCC(=O)N4CCOCC4)c3c(=O)n2-c2ccccc2)n1`, the results for the IC50 (in the assay on SU-DHL-6; in assay [1]) were > 10000 nM and > 300 nM, respectively.
